Data: patent US7432341B2, “Cytokine receptor modulators and method of modulating cytokine receptor activity” (Valo HSJ, Limited Partnership, priority 2002, dated 2008)
Non-standard residues stand in square brackets, D forms with d. Residues, ends and D or L forms follow the SMILES beside them. No end group written: not given here.

Key:
[1] = system: VEGFR2 (Flk-1); assay: VEGF induced proliferation in microvascular endothelial cells, incorporated tritiated thymidine method; format: cell-based, porcine; conditions: VEGF 2 ng/ml; peptides 10 μM (FIG. 2 panel A)
Description: (§1) FIG. 2 graphically illustrates in panel A results of proliferation assay in porcine microvascular endothelial cells in presence of VEGF (2 ng/ml) and peptides 2.1, 2.2, 2.3 (10 μM). In panel B are graphically illustrated dose-response of peptides in pulmonary arterial endothelial cells (PAEC) in presence of VEGF (2 ng/ml) and increasing doses of peptides. In panel C is graphically illustrated the effect of intravitreally injected peptides (10 μM [estimated final intraocular concentration]) of the present invention on neovascularization in rat retinas exposed to hyperoxic conditions;
To determine the efficient and non cytotoxic concentration of VEGF to use in the assay, a dose-response curve of VEGF was generated in two types of cells, namely microvascular endothelial cells and pulmonary artery endothelial cells (PAEC) that had been transfected with the Flk-1 gene. The proliferation was then measured in those two types of cells in the presence of peptides 2.1, 2.2 and 2.3 and of VEGF (2 ng/ml) pursuant to the incorporated tritiated thymidine method. The cells were preincubated at 37° C. with the different peptides at different concentrations. They were incubated with VEGF (2 ng/ml) for 24 hours. The cells were contacted with ^3H-Thymidine for 24 hours, washed and lysed. The radioactivity was measured with a scintillation counter.

[2] = target: T1, VEGFR (Flk-1) (Rattus norvegicus, UniProt O08775); assay: Ischemic retinopathy model, neovascularization in rat retinas exposed to hyperoxic conditions; format: in vivo; conditions: rat pups, 80% O2 then normoxia; peptides 10 μM final concentration in the vitreous body
T1 construct: from tissue; host or cells: rat pup retina (in vivo, intravitreal injection)
Description: as §1
The efficiency of the selected peptides was verified in vivo in a ischemic retinopathy model, a phenomena highly dependant on VEGF activation. Rat pups were exposed to 80% O2 followed by a period of normoxia (21% O2). The peptides were injected at a final concentration of 10 μM in the vitreous body. The retinas were then retrieved, colored with the ADPase method and mounted on slides. Photographs of the retinas were taken with a microscope linked to a computer and the vascular density was evaluated with the Image prosoftware.

[3] = target: T2, IL-1R/IL-1RacP (Homo sapiens, UniProt Q9NPH3); assay: IL-1 induced proliferation in A549 carcinoma cells, tritiated thymidine method; format: cell-based; conditions: IL-1 10 ng/ml or 1 ng/ml; peptides 10^−6 to 10^−4 M
T2 construct: endogenous in cells; host or cells: A549 carcinoma cells
T2 sequence (Q9NPH3 21-570): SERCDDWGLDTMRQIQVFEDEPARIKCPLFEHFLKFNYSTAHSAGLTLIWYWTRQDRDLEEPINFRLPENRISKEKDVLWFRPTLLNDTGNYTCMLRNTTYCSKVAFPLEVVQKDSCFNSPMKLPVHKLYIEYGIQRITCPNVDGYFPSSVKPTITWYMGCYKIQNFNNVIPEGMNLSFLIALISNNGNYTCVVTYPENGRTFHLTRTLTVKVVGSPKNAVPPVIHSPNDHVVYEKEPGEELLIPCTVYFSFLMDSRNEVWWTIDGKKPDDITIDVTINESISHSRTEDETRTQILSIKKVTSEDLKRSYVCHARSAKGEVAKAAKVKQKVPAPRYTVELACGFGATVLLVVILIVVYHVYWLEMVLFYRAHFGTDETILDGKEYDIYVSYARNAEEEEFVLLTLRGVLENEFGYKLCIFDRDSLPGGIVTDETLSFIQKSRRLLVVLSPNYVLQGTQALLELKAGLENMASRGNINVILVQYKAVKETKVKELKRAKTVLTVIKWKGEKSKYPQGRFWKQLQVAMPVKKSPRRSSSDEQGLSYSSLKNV
Description: FIG. 9 graphically illustrates results of proliferation assays in carcinome A549 cells in presence of IL-1 (10 ng/ml-Panel A) (1 ng/ml-Panel B) and various concentrations of the peptides API-101, API-103 and API-106;
The proliferation effect of IL-1 was measured in A549 carcinoma cells in the presence of peptides API101; API103 and API106 and of IL-1 (10 ng/ml-Panel A) and (1 ng/ml-Panel B) pursuant to the incorporated tritiated thymidine method. The cells were preincubated at 37° C. with the different peptides at different concentrations, namely 10^−6, 10^−5 and 10^−4 M. They were then incubated with IL-1 (10 ng/ml or 1 ng/ml) for 24 hours. The cells were then contacted with ^3H-Thymidine for 24 hours, washed and lysed. The radioactivity was then measured with a scintillation counter. The sequences of the peptides antagonists used are as follows: API-101 […], API-103 […]; and API-106 […]. They generally correspond to the subfragment peptides having sequences SEQ ID NO: 50, NO: 52 and NO: 53, respectively except where the subfragment peptide contained an isoleucine. In that case, this isoleucine was replaced by a conservative leucine in the synthesized peptide for economic reasons.

[4] = system: IL-1R/IL-1RacP; assay: Vasomotricity of piglet pial vessels, IL-1β induced vasodilatation; conditions: IL-1β 75 ng/ml; U46619 10^−7M preconstriction; peptide 10^−10 to 10^−5 M; data not shown; read-out: IC50, prevention of vasodilation induced by IL-1β in piglet pial vessels
Description: In another experiment, vasomotricity variation of piglets pial vessels was studied to further evaluate the particular effect of cytokine receptor subfragments on the vasodilatator effect of IL-1β. Brains were dissected from Yorkshire piglets. Slices of brain exposing the pial vessels were pinned to a wax base of a 20 ml bath containing Krebs buffer (pH 7.4) equilibrated with 95% O2-5% CO2 and maintained at 37° C. Microvessels were visualized and recorded using a video camera mounted on a dissecting microscope. Vascular diameter was measured using a digital image analyzer and the images were recorded before and after topical application of constricting agent U46619 at 10^−7M. After stabilization of the vasomotricity, IL-1β was added until stabilization of vasodilatation. Peptides were then injected at different concentrations from 10^−10 to 10^−5M. Reversal of vasodilatation (i.e. vasoconstriction) was visualized and measured as previously mentioned. IL-1β induced vasodilatation in the microvasculature of the piglet brain was observed. […] The range of concentrations of the peptide administered was from 10^−10 to 10^−5 M.

T1 sequence (O08775 20-1343): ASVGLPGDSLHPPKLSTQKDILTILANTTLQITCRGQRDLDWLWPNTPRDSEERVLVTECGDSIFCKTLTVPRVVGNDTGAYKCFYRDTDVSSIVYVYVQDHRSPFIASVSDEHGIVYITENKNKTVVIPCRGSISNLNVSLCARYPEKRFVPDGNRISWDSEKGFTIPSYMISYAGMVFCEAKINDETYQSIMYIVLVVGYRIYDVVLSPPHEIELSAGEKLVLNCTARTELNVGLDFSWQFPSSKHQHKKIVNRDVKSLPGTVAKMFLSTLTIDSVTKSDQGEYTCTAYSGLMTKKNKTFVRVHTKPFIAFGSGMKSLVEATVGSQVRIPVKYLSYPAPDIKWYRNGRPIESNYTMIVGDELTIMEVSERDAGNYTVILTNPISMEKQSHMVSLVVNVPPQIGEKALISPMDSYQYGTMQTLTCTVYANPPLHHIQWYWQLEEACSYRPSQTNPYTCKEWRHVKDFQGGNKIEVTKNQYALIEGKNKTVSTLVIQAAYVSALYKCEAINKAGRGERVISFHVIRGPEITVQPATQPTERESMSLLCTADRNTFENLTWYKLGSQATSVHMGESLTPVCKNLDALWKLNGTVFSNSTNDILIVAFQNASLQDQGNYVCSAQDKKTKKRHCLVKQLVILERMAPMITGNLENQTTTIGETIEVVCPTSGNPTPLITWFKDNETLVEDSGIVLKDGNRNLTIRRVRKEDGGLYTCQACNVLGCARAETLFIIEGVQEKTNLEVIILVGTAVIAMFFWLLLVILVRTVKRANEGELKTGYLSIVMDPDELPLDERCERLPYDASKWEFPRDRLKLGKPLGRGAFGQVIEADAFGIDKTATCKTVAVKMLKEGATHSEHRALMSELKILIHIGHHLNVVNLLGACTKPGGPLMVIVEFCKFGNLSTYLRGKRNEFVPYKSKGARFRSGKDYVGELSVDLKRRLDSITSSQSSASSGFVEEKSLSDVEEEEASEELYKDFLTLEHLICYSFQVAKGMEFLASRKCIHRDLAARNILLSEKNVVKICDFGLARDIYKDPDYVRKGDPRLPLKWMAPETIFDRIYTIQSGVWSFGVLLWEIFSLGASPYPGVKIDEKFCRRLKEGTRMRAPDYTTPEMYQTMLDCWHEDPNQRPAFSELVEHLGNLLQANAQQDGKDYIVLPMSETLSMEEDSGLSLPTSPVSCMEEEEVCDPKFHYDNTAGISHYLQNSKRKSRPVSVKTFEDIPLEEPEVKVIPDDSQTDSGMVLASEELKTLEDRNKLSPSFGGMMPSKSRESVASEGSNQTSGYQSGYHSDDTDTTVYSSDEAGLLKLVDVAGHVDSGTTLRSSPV

Row | Compound | VEGF induced proliferation in microvascular endothelial cells [1] | induced neovascularization in vivo (vascular density of retina) [2] | EC50 [3] [nM] | IC50 [4] [nM]
1 | CC(C)C[C@@H](NC(=O)[C@@H](CCCNC(=N)N)NC(=O)[C@H](NC(=O)[C@@H](CCCNC(=N)N)NC(=O)[C@@H](CCC(=O)O)NC(=O)CNC(=O)[C@H](NC(=O)[C@H](NC(=O)[C@@H](C)NC(=O)[C@H](N)CCC(=O)O)[C@H](C)O)C(C)C)C(C)C)C(=O)O [2.2] (H-[dE][dA][dT][dV]G[dE][dR][dV][dR][dL]-OH; N-terminus and C-terminus assumed) | completely abrogated | most effective inhibitor of neovascularization | – | –
2 | MKLPVHKLY [API-103] | – | – | 1000 | –
3 | APRYTVELA [API-101] | – | – | 1000 | 182
4 | CC[C@@H](C)[C@@H](NC(=O)[C@@H](CCC(=O)O)NC(=O)[C@@H](CC(C)C)NC(=O)[C@@H](CC(N)=O)NC(=O)[C@H](NC(=O)[C@@H](CCCCN)NC(=O)[C@@H](CCC(=O)O)NC(=O)[C@@H](CCC(N)=O)NC(=O)[C@@H](C)N)[C@H](C)O)C(=O)N[C@@H](C(=O)N[C@@H](C(=O)N[C@H](CC(C)C)C(=O)N[C@@H](C(=O)NCC(=O)O)C(C)C)[C@H](C)CC)[C@H](C)CC [2.1] (H-[dA][dQ][dE][dK][dT][dN][dL][dE][dI][dI][dI][dL][dV]G-OH; N-terminus and C-terminus assumed) | completely abrogated | – | – | –
